Patent US20160201132A1, “GENE EXPRESSION BIOMARKERS OF LAQUINIMOD RESPONSIVENESS” (Teva Pharmaceutical Industries Ltd., priority 2013, published 2016)

System: PBMC of RRMS patients
Assay: Gene expression microarray analysis (HG-U133A-2) of PBMC from RRMS patients treated with LAQ, ancillary study to ALLEGRO
Assay type: in vivo, human
Conditions: for Fold-Change (1.0 vs. 0.0): one month of treatment
Description: The goal of this ancillary study was to characterize gene expression changes and corresponding biological mechanisms induced in PBMC of RRMS patients by LAQ treatment. According to ALLEGRO clinical trial inclusion criteria, 25 patients were randomly assigned to receive LAQ (n=13, age 38.8±2.3 years, female/male ratio: 8/5) or placebo (n=12, age 37.2±3.4 years, female/male ratio: 8/4).
Peripheral blood samples were obtained from RRMS patients at baseline before start of LAQ treatment or placebo, after 0, 1, 6 and 24 month of treatment (visit 0, 1, 6 and 7 according to ALLEGRO clinical trial protocol correspondently) for gene microarray analysis.
Briefly, 1) Peripheral blood mononuclear cells (PBMC) were obtained from RRMS patients that participated in ALLEGRO and were treated daily with 0.6 mg LAQ or placebo. PBMC were subjected for gene expression analysis (HU-133A-2-Affymatrix arrays) at baseline and at 1 and 6 months of LAQ treatment; 2) Data was analyzed by Partek Genomics Solution software. Most informative genes (MIGs) were defined as those that differentiated between groups with p<0.01. Gene functional annotation, enrichment and pathway analysis were performed by Ingenuity software. For each time point, genes that changed in placebo group were excluded from further analysis; and 3) Verification of LAQ related mechanism was performed by Western blot.
PBMC were extracted from 15 ml peripheral blood, separated by Ficoll-Hypaque gradient. Total RNA was extracted using both Trizol (Invitrogen, USA) and Phase-Lock-Gel columns (Eppendorf, Germany) including a DNase digestion step. RNA integrity was assessed by RNA Experion automated electrophoresis system (Bio-Rad Laboratories, Hercules, Calif.).
Probe synthesis using 3 μg total RNA, hybridization, detection, and scanning was performed according to the standard Affymetrix, Inc. USA protocols; cDNA was synthesized using the Two-Cycle cDNA Synthesis Kit (Affymetrix, Inc., USA), and in-vitro transcription performed with the GeneChip IVT Labeling Kit (Affymetrix, Inc., USA). The biotin-labeled IVT-RNA was hybridized to HG-U133A-2 arrays containing 18,400 gene transcripts, each corresponding to 14,500 well-annotated human genes, washed in a GeneChip Fluidics Station 450 (Hewlett Packard, USA, GeneArray-™ scanner G2500A) and scanned according to the manufacturer's protocol (Affymetrix, Inc., USA).
Data analysis was performed on Partek Genomics Solution software (www.partek.com; Partek Incorporated, St. Louis, Mo.). Expression values were computed from raw CEL files by applying the Robust Multi-Chip Average (RMA) background correction algorithm. RMA correction included: 1) values background correction; 2) quintile normalization; 3) log 2 transformation; and 4) median polish summarization. The ANOVA, Repeated Measures and correlation analysis implicated in Partek software ware applied to evaluate LAQ effects. Most informative genes MIGs were defined as those that differentiated between experimental groups with p<0.01. All p-values were calculated for False Discovery Rate (FDR) multiple test correction at p=0.05.
Additionally, significance of individual genes was tested by parametric T-test and non parametric Mann-Whitney test using Bootstrapping approach based on repeated permutations of the data with 5% FDR for multiple testing.
Gene functional annotation, enrichment, and pathway analyses to identify the leading biological pathways that operated under LAQ treatment were performed by Ingenuity Pathways Analysis software (www.ingenuity.com).
ANOVA analysis was used to compare PBMC gene expression after 1, 6 or 24 month of LAQ treatment with baseline gene expression.
For each time point inventors performed analysis source of variation in dataset. (FIG. 1). Age, gender and batch effects were considered as confounders regarding LAQ or Placebo related changes. For each time point genes associated with Placebo effect were evaluated and excluded from further analysis. […]

[1] = 1 month of LAQ 0.6 mg/day vs baseline
[2] = 6 months of LAQ 0.6 mg/day vs baseline
[3] = 1564 FDR genes, combined 6 and 24 months

## CCN(C(=O)c1c(O)c2c(Cl)cccc2n(C)c1=O)c1ccccc1 [LAQ, 5-chloro-N-ethyl-4-hydroxy-1-methyl-2-oxo-N-phenyl-1,2-dihydroquinoline-3-carboxamide]
[1]
  # of genes p < 0.01 (LAQ related MIGs, ANOVA): 354
  Down regulated genes (LAQ related MIGs): 348
  Up-regulated genes (LAQ related MIGs): 6
[2]
  # of genes p < 0.01 (LAQ related MIGs, ANOVA): 1562
  Down regulated genes (LAQ related MIGs): 1552
  Up-regulated genes (LAQ related MIGs): 10
6 months or longer treatment
  p, suppression of genes related to the TGFB pathway: 1.9*10^−2
[3]
  genes (n), suppression of cell migration function: 233
  genes (n), suppression of chemotaxis: 78
  p, suppression of cell migration function: 4.5*10^−14
  p, suppression of chemotaxis: 4.3*10^−5
202280_at (gene symbol not given)
  Fold-Change (1.0 vs. 0.0): −1.157
ABLIM3 205730_s_at
  Fold-Change (1.0 vs. 0.0): −1.542
ALDOB 204704_s_at
  Fold-Change (1.0 vs. 0.0): −1.119
APBA2 209871_s_at
  Fold-Change (1.0 vs. 0.0): −1.163
ARHGEF10 215139_at
  Fold-Change (1.0 vs. 0.0): −1.176
ARMCX6 /// LOC653354 214749_s_at
  Fold-Change (1.0 vs. 0.0): −1.178
ASAP2 206414_s_at
  Fold-Change (1.0 vs. 0.0): −1.773
C1orf116 219476_at
  Fold-Change (1.0 vs. 0.0): −1.222
CA5A 207421_at
  Fold-Change (1.0 vs. 0.0): −1.243
CALD1 201617_x_at
  Fold-Change (1.0 vs. 0.0): −1.326
CALD1 212077_at
  Fold-Change (1.0 vs. 0.0): −1.896
CAPRIN1 200722_s_at
  Fold-Change (1.0 vs. 0.0): −1.157
CCDC93 209689_at
  Fold-Change (1.0 vs. 0.0): −1.133
CD84 211190_x_at
  Fold-Change (1.0 vs. 0.0): −1.166
CDC14B 208022_s_at
  Fold-Change (1.0 vs. 0.0): −1.4133
CLDN5 204482_at
  Fold-Change (1.0 vs. 0.0): −1.364
CTDSPL 201905_s_at
  Fold-Change (1.0 vs. 0.0): −1.468
DLG4 210684_s_at
  Fold-Change (1.0 vs. 0.0): −1.187
DNM3 209839_at
  Fold-Change (1.0 vs. 0.0): −1.8
FABP7 205030_at
  Fold-Change (1.0 vs. 0.0): −1.176
FAM12B 220759_at
  Fold-Change (1.0 vs. 0.0): −1.1468
FBXO7 201178_at
  Fold-Change (1.0 vs. 0.0): −1.135
FBXW7 218751_s_at
  Fold-Change (1.0 vs. 0.0): −1.112
FSTL1 208782_at
  Fold-Change (1.0 vs. 0.0): −1.694
GNAS 200780_x_at
  Fold-Change (1.0 vs. 0.0): −1.158
GNAS 200981_x_at
  Fold-Change (1.0 vs. 0.0): −1.1585
GNAS 212273_x_at
  Fold-Change (1.0 vs. 0.0): −1.156
GNAS 214548_x_at
  Fold-Change (1.0 vs. 0.0): −1.159
GNB5 207124_s_at
  Fold-Change (1.0 vs. 0.0): −1.1663
GNB5 211871_x_at
  Fold-Change (1.0 vs. 0.0): −1.159
GP1BA 207389_at
  Fold-Change (1.0 vs. 0.0): −1.548
GPRASP1 204793_at
  Fold-Change (1.0 vs. 0.0): −1.16
GRAP2 208406_s_at
  Fold-Change (1.0 vs. 0.0): −1.394
GSPT1 217595_at
  Fold-Change (1.0 vs. 0.0): −1.116
GUCY1B3 203817_at
  Fold-Change (1.0 vs. 0.0): −1.73
H2BFS /// HIST1H2BK 208579_x_at
  Fold-Change (1.0 vs. 0.0): −1.481
HIST1H2AC 215071_s_at
  Fold-Change (1.0 vs. 0.0): −1.628
HIST1H2AJ 208583_x_at
  Fold-Change (1.0 vs. 0.0): −1.278
HIST1H2BK 209806_at
  Fold-Change (1.0 vs. 0.0): −1.418
HLA-E 217456_x_at
  Fold-Change (1.0 vs. 0.0): −1.062
IGF2BP3 203819_s_at
  Fold-Change (1.0 vs. 0.0): −1.72
ITGB1 211945_s_at
  Fold-Change (1.0 vs. 0.0): −1.17
ITGB3 204628_s_at
  Fold-Change (1.0 vs. 0.0): −1.579
ITGB3 215240_at
  Fold-Change (1.0 vs. 0.0): −1.589
ITGB5 201125_s_at
  Fold-Change (1.0 vs. 0.0): −1.713
LIMS1 207198_s_at
  Fold-Change (1.0 vs. 0.0): −1.445
LIMS1 212687_at
  Fold-Change (1.0 vs. 0.0): −1.3332
LOC150776 /// SMPD4 207856_s_at
  Fold-Change (1.0 vs. 0.0): −1.0672
LOC157627 214839_at
  Fold-Change (1.0 vs. 0.0): 1.326
LUC7L2 220099_s_at
  Fold-Change (1.0 vs. 0.0): −1.155
